Data as given in patent publication US20210379210A1, “RADIOLIGANDS FOR IMAGING THE LPA1 RECEPTOR” (BRISTOL-MYERS SQUIBB COMPANY, priority 2018, published 2021).
Several values for one entry are separate records, joined by “and”; a condition that tells them apart may be missing. Equal entries are not always repeated.

Columns and labels:
[1] = system: LPA1; assay: In-vivo PET imaging in cynomolgus monkeys, lung SUV and % displacement; set-up: species or system cynomolgus monkey; details: healthy cynomolgus monkeys, listed as [^18F]-(1S,3S)-3-(6-(5-((((4-(fluoro)butyl)(methyl)carbamoyl)oxy)methyl)-1-meth))
Description: [^18F]-(1S,3S)-3-((6-(5-((((4-(fluoro)butyl)(methyl)carbamoyl)oxy)methyl)-1-methyl-1H-1,2,3-triazol-4-yl)-2-methylpyridin-3-yl)oxy)cyclohexane-1-carboxylic acid was tested as an LPA1 PET radioligand to validate the target engagement of LPA1 antagonist used in normal healthy cynomolgus monkeys and to support future clinical use of this agent as a PET radioligand. In this experiment, the specific binding to LPA1, PET imaging in normal healthy cynomolgus monkeys (n=3) was performed. PET images were acquired at baseline and again at after oral administration of an LPA1 antagonist (3, 10, and 30 mg/kg) or vehicle solution (0.5% Methocel A4M: 0.1% Tween 80 (Polysorbate 80): 99.4% Water) only. The oral dosing time of LPA1 antagonist or vehicle was 3 hours prior to [^18F]-labeled antagonist injection. Cynomolgus monkeys on study were fasted beginning the morning of the imaging day. Veterinary Scientists induced initial anesthesia pre-op cocktail of 0.02 mg/kg Atropine, and 5 mg/kg Telazol, 0.1 mg/kg Hydromorphone IM. […] Vital signs were continuously monitored throughout the imaging study. […] After returning to a conscious state, the monkey was transferred to an isolation room with food and water until the radioactivity was decayed to background levels. […]

[2] = Radio-metabolism, fraction intact post-injection; format: in vivo; details: at the 90 minute post-injection

average SUV at baseline for individual animals ([1]; lung, mean of baseline scans per animal): 0.398 and 0.321 and 0.391
radio-metabolism, intact [2]: 80%
SMILES: Cc1nc(-c2nnn(C)c2COC(=O)N(C)CCCC[18F])ccc1O[C@H]1CCC[C@H](C(=O)O)C1 [Example 16]
SUV in Lung (60-90 min) ([1]; individual baseline scans): 0.307 and 0.428 and 0.333 and 0.273 and 0.356 and 0.379 and 0.403 and 0.459
